Laboratory results from ChEMBL document CHEMBL4483862, “Open-source discovery of chemical leads for next-generation chemoprotective antimalarials” (2018).

Tested on: Plasmodium berghei
Test: Luciferase/luciferin-expressing antifolate-resistant parasites were used to infect a culture of HepG2 cells that were pre-incubated with compounds. Infected hepatocytes emit light due to the luciferase reaction. Assay results are presented as the percent inhibition of light emission compared to control. […]
Assay type: functional
Conditions: sporozoite; for IC90: read-out: LUCIFERASE INFECTION ASSAY - IC90
[1] = read-out: LUCIFERASE INFECTION ASSAY - IC50

| Structure (SMILES) | IC90 [µM] | IC50 [1] [µM] | other results |
| --- | --- | --- | --- |
| CC(C)(C)c1ccc(C(=O)Nc2cc(Cl)ccc2OC(=O)c2ccc(C(C)(C)C)cc2)cc1 | > 7.11 |  | IC50 (PBLUC_HILL_SLOPE 0.69, PBLUC_R_SQUARED 0.715, read-out: LUCIFERASE INFECTION ASSAY - IC50): 0.555 µM |
| CC1CCN(Cc2csc(NC(=O)c3ccc4ncsc4c3)n2)CC1 | > 10 |  | IC50 (HEPG2TOX_HILL_SLOPE 0.129, HEPG2TOX_R_SQUARED 0.115, read-out: LUCIFERASE INFECTION ASSAY - IC50): > 10 µM |
| COc1cccc(C(=O)Nc2nc3ccc(C)cn3c2C(=O)NCC(C)C)c1 | 4.69 | 2.62 |  |
| CCOC(=O)c1sc(N)c(C#N)c1COC(=O)c1c(CC)noc1C | 0.249 | 0.244 |  |
| CCCc1cc(NCc2ccccn2)n2nc(C)c(-c3ccccc3)c2n1 | 4.47 |  | IC50 (PBLUC_HILL_SLOPE 8.47, PBLUC_R_SQUARED 0.549, read-out: LUCIFERASE INFECTION ASSAY - IC50): 3.45 µM |
| CC(=O)N[C@H]1[C@@H](OC(C)=O)O[C@H](COC(c2ccccc2)(c2ccccc2)c2ccccc2)[C@@H](OC(C)=O)[C@@H]1OC(C)=O | > 5.6 | > 5.6 |  |
| Cc1ccc(-c2noc(CN3CCN(c4cc(C)nc(N)n4)CC3)n2)cc1 | > 10 |  | IC50 (HEPG2TOX_HILL_SLOPE 1.35, HEPG2TOX_R_SQUARED 0.853, PBLUC_HILL_SLOPE 1.09, PBLUC_R_SQUARED 0.613, read-out: LUCIFERASE INFECTION ASSAY - IC50): 1.45 µM |
| Cc1oc(C(C)(C)C)cc1-c1cc(NC(=O)Nc2ccc(OC(F)(F)F)cc2)n(-c2cc(C(F)(F)F)cc(C(F)(F)F)c2)n1 | 4.49 |  | IC50 (HEPG2TOX_HILL_SLOPE 8.23, HEPG2TOX_R_SQUARED 0.187, PBLUC_HILL_SLOPE 2.09, PBLUC_R_SQUARED 0.645, read-out: LUCIFERASE INFECTION ASSAY - IC50): 1.57 µM |
| CN=C1NN=C(c2cc(C)n(-c3ccc(OC)cc3)c2C)CS1 | > 10 |  | IC50 (PBLUC_HILL_SLOPE 1.15, PBLUC_R_SQUARED 0.417, read-out: LUCIFERASE INFECTION ASSAY - IC50): > 10 µM |
| CCOC(=O)C(NC(=O)c1ccco1)(Nc1ccc(F)c(Cl)c1)C(F)(F)F (stereo not given) | > 8.07 | > 8.07 |  |
| CN(C)c1ccc(CNCC2(c3ccnc(-c4cccc(N(C)C)c4)c3)CC2)cc1 | > 10 |  | IC50 (PBLUC_HILL_SLOPE 3.17, PBLUC_R_SQUARED 0.141, read-out: LUCIFERASE INFECTION ASSAY - IC50): 9.64 µM |
| Cc1ccc(C(O)c2nnc(Nc3cc(C(F)(F)F)ccc3F)s2)cc1 (stereo not given) | > 10 | > 10 |  |
| O=C(Nc1sc2ccccc2c(=O)c1-c1ccccc1)C1CCCCC1 | > 9.08 | > 9.08 |  |
| O=C1C=C(NCc2ccccc2)CC(c2ccc(Cl)cc2)C1 (stereo not given) | > 10.6 |  | IC50 (HEPG2TOX_HILL_SLOPE 2.56, HEPG2TOX_R_SQUARED 0.714, PBLUC_HILL_SLOPE 1.97, PBLUC_R_SQUARED 0.212, read-out: LUCIFERASE INFECTION ASSAY - IC50): 6.81 µM |
| CN(Cc1ccccc1)S(=O)(=O)c1ccc(Cl)c(C(=O)Nc2nnc(C(F)(F)F)[nH]2)c1 | 7.66 |  | IC50 (PBLUC_HILL_SLOPE 3.05, PBLUC_R_SQUARED 0.465, read-out: LUCIFERASE INFECTION ASSAY - IC50): 3.73 µM |
| CCCN1CCc2nc(NCc3cccc(Oc4ccccc4)c3)ncc2C1 | > 8.81 |  | IC50 (PBLUC_HILL_SLOPE 1.46, PBLUC_R_SQUARED 0.3, read-out: LUCIFERASE INFECTION ASSAY - IC50): 3.92 µM |
| Cc1ccccc1-c1nc2oc3ccccc3c(=O)c2c(=O)n1Cc1ccccc1 | 5.78 |  | IC50 (PBLUC_HILL_SLOPE 4.15, PBLUC_R_SQUARED 0.52, read-out: LUCIFERASE INFECTION ASSAY - IC50): 3.4 µM |
| COc1ccc(-c2cc(C(=O)NNC3=NCCC3)c3c(C)nn(-c4ccccc4)c3n2)cc1 | > 10 |  | IC50 (PBLUC_HILL_SLOPE 16.7, PBLUC_R_SQUARED 0.16, read-out: LUCIFERASE INFECTION ASSAY - IC50): 9.26 µM |
| Cc1cc(C(C)(C)C)cc(C)c1CCNC(=O)NCCNC(=O)c1ccco1 | > 10 |  | IC50 (PBLUC_HILL_SLOPE 2.38, PBLUC_R_SQUARED 0.642, read-out: LUCIFERASE INFECTION ASSAY - IC50): 5.63 µM |
| CC(C)(C)c1ccc(C(=O)Nc2ccc(C(F)(F)F)cc2)s1 | 4.36 | 0.561 |  |
| Nc1nccnc1C(=O)Nc1nc2cc3c(cc2s1)OCCO3 | 0.434 |  | IC50 (HEPG2TOX_HILL_SLOPE 1.04, HEPG2TOX_R_SQUARED 0.527, PBLUC_HILL_SLOPE 12.4, 0.362, PBLUC_R_SQUARED 0.835, 0.759, read-out: LUCIFERASE INFECTION ASSAY - IC50): 0.197 µM |
| O=c1c(Cl)c(NCC(c2ccco2)N2CCCCC2)cnn1-c1nc2ccccc2[nH]1 (stereo not given) | > 10 |  | IC50 (PBLUC_HILL_SLOPE 10.1, PBLUC_R_SQUARED 0.23, read-out: LUCIFERASE INFECTION ASSAY - IC50): 8.87 µM |
| CSc1ncccc1C(=O)Nc1nc(-c2ccc3ccccc3c2)cs1 | > 10 |  | IC50 (FFLUC_HILL_SLOPE 11.5, FFLUC_R_SQUARED 0.449, read-out: LUCIFERASE INFECTION ASSAY - IC50): > 10 µM |

| Structure (SMILES) | IC90 [µM] | IC50 [1] [µM] | other results |
| --- | --- | --- | --- |
| Clc1ccc(C2=NN=C/C2=N\Nc2ccccc2)cc1 | > 11.7 |  | IC50 (FFLUC_HILL_SLOPE 24, FFLUC_R_SQUARED 0.142, HEPG2TOX_HILL_SLOPE 12.3, HEPG2TOX_R_SQUARED 0.867, PBLUC_HILL_SLOPE 2.49, PBLUC_R_SQUARED 0.792, read-out: LUCIFERASE INFECTION ASSAY - IC50): 5.52 µM |
| CC(=O)N(c1ccc(Cl)c(Cl)c1)c1nc(CN2CCCCCC2)cs1 | 9.28 | 4.55 |  |
| COC(=O)c1c(C)nn(C(=O)c2ccc(Cl)cc2)c1-c1snnc1C | > 8.76 | > 8.76 |  |
| N#Cc1c(/N=C/c2ccccc2C(F)(F)F)sc2c1CCCCC2 | 7.41 |  | IC50 (FFLUC_HILL_SLOPE 1.19, FFLUC_R_SQUARED 0.84, PBLUC_HILL_SLOPE 1.29, PBLUC_R_SQUARED 0.776, read-out: LUCIFERASE INFECTION ASSAY - IC50): 1.35 µM |
| CN(CCCN1C(=O)c2ccccc2C1=O)CC(=O)N(C)C | > 10 | > 10 |  |
| CCc1cc2c(=O)n(Cc3ccco3)c(SCC(=O)N(C)C3CCS(=O)(=O)C3)nc2s1 (stereo not given) | > 10 | > 10 |  |
| FC(F)(F)Oc1cccc(-c2ccc3ncc(-c4cccs4)n3n2)c1 | > 10 |  | IC50 (PBLUC_HILL_SLOPE 2.85, PBLUC_R_SQUARED 0.222, read-out: LUCIFERASE INFECTION ASSAY - IC50): 9.07 µM |
| FC(F)(F)c1cnc(-n2cccc2/C=N/Nc2nc3ccccc3nc2C(F)(F)F)c(Cl)c1 | > 6.81 |  | IC50 (FFLUC_HILL_SLOPE 4.66, FFLUC_R_SQUARED 0.46, HEPG2TOX_HILL_SLOPE 16.5, HEPG2TOX_R_SQUARED 0.459, PBLUC_HILL_SLOPE 3.99, PBLUC_R_SQUARED 0.83, read-out: LUCIFERASE INFECTION ASSAY - IC50): 4.16 µM |
| O=S(=O)(Cc1cc(N2CCN(c3ccccc3)CC2)nc(-c2ccccn2)n1)c1ccccc1 | > 7 | > 7 |  |
| Cc1noc(N)c1-c1nc(-c2cccc(C(F)(F)F)c2)cs1 | > 10.1 |  | IC50 (HEPG2TOX_HILL_SLOPE 3.53, HEPG2TOX_R_SQUARED 0.703, read-out: LUCIFERASE INFECTION ASSAY - IC50): > 10.1 µM |
| Cc1ccc(S(=O)(=O)N2CCSc3cc(Cl)ccc32)cc1 | 3.49 |  | IC50 (HEPG2TOX_HILL_SLOPE 2.16, HEPG2TOX_R_SQUARED 0.961, PBLUC_HILL_SLOPE 19.3, PBLUC_R_SQUARED 0.449, read-out: LUCIFERASE INFECTION ASSAY - IC50): 3.12 µM |
| CCCn1c(NC(=O)c2ccc3ncsc3c2)nc2ccccc21 | 9.62 | 8.47 |  |
| CCn1c(=O)n(CCC(=O)N(CC2CCCO2)c2nc3ccccc3s2)c2ccccc21 (stereo not given) | > 10 | > 10 |  |
| COc1cc(OC)cc(Oc2nc(NC(C)C)nc3ccsc23)c1 | 1.38 | 1.25 |  |
| C=C(C)C/N=c1\scc(-c2ccc(OC)cc2OC)n1/N=C(\C)c1ccc(OC)cc1 | > 10 |  | IC50 (FFLUC_HILL_SLOPE 13, FFLUC_R_SQUARED 0.36, read-out: LUCIFERASE INFECTION ASSAY - IC50): > 10 µM |
| N#Cc1ccc(C=C2C(=O)Nc3ccccc3NC2=O)cc1 | > 10 | > 10 |  |
| CC(C)c1ccc(-c2csc(NC(=O)CCn3cnc([N+](=O)[O-])c3)n2)c(C(C)C)c1 | 8.21 |  | IC50 (FFLUC_HILL_SLOPE 11.6, FFLUC_R_SQUARED 0.59, HEPG2TOX_HILL_SLOPE 11.1, HEPG2TOX_R_SQUARED 0.951, PBLUC_HILL_SLOPE 3.89, PBLUC_R_SQUARED 0.436, read-out: LUCIFERASE INFECTION ASSAY - IC50): 4.67 µM |
| COc1cc(-c2cnc3sc(NCC4CCOCC4)nn23)ccc1O | > 9.16 | > 9.16 |  |
| Cc1cc(C(C)(C)C)cc(C)c1N1C(=O)C=CC1=O | > 12.8 |  | IC50 (HEPG2TOX_HILL_SLOPE 11.2, HEPG2TOX_R_SQUARED 0.888, PBLUC_HILL_SLOPE 4.45, PBLUC_R_SQUARED 0.621, read-out: LUCIFERASE INFECTION ASSAY - IC50): 8.96 µM |
| CN1CCc2nc(NC(=O)C3CCN(c4ncc(C(F)(F)F)cc4Cl)CC3)sc2C1 | > 10 | > 10 |  |
| Cc1ccc(-c2nn(-c3ccccc3)cc2/C=C/C(=O)NC2CCN(Cc3ccccc3)CC2)cc1 | 9.38 |  | IC50 (PBLUC_HILL_SLOPE 22.5, 12.9, PBLUC_R_SQUARED 0.0358, 0.549, read-out: LUCIFERASE INFECTION ASSAY - IC50): 8.22 µM |
| Cc1cccc(N/N=C2\C=NN=C2c2ccc(Br)cc2)c1 | > 9.67 |  | IC50 (FFLUC_HILL_SLOPE 12.3, FFLUC_R_SQUARED 0.435, HEPG2TOX_HILL_SLOPE 0.345, HEPG2TOX_R_SQUARED 0.819, PBLUC_HILL_SLOPE 10.9, PBLUC_R_SQUARED 0.46, read-out: LUCIFERASE INFECTION ASSAY - IC50): 9.21 µM |
